# Laboratory results as given in paper PMC6688997 (Nature Communications, 2019).
# Like-named read-outs stand apart in the source and are kept apart here.
# Key:
# [1] = tested on: Ba/F3-CD74-ROS1 cells (WT); assay: CellTiter-Glo cell viability assay; assay type: cell-based, murine; settings: for IC50: 72 h
# IRAK1 = IRAK1 (Homo sapiens, UniProt P51617); assay: Kinase assay, ATP Km; assay type: biochemical
# NTRK3 = target: T1, NTRK3 (Homo sapiens, UniProt Q16288); assay: Kinase assay, 1 mM ATP; assay type: biochemical
# T1 construct: purchased Carna Biosciences, Inc. (Kobe, Japan)
# [2] = for Body Weight Change(%) (average / SD): N 6
# T1 sequence (Q16288 32-839): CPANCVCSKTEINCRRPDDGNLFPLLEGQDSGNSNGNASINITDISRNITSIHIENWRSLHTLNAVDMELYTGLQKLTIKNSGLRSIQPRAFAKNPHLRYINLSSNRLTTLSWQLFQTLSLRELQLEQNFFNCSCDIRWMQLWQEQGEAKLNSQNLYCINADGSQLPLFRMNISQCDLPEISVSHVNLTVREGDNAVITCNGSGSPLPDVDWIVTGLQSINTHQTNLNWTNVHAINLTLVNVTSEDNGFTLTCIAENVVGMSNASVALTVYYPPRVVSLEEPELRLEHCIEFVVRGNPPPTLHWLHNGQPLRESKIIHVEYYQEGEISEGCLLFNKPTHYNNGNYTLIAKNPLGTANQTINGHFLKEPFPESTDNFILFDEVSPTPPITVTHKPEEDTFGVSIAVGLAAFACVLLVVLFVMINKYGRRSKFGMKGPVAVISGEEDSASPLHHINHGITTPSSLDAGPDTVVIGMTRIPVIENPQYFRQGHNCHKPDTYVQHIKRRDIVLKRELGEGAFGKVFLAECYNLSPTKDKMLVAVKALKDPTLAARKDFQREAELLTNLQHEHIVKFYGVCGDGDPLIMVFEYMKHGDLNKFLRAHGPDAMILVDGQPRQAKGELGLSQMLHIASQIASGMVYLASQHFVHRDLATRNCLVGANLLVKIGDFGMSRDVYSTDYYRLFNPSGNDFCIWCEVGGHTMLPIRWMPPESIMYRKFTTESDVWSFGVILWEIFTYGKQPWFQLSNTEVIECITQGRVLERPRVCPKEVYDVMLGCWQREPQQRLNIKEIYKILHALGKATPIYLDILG
# Sequence of IRAK1 (P51617 whole entry): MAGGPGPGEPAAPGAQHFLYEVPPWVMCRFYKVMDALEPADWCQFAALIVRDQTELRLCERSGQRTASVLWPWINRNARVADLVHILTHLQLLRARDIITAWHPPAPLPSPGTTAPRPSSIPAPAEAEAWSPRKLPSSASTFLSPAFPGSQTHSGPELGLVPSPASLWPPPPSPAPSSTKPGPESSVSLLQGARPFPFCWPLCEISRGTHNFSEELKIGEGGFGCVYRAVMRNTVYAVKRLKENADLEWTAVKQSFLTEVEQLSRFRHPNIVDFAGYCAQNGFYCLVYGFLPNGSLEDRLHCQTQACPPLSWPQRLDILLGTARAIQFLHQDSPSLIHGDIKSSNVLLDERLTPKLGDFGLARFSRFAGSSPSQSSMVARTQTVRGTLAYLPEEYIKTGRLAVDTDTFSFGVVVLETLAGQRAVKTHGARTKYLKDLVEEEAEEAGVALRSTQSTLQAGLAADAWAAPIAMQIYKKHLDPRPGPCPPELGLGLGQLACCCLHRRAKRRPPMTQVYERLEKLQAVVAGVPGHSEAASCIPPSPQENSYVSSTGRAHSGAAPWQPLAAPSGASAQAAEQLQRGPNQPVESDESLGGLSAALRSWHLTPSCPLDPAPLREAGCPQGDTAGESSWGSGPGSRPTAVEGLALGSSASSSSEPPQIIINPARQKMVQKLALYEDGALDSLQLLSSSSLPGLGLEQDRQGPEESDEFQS
structure (smiles),measurement,setting,value
C[C@@H](N)COc1ccc(-c2cnc3ccc(N[C@H](C)c4cccc(F)c4)nn23)cc1.O=C(O)CCCCC(=O)O [DS-6051b],IC50,[1],lower IC50 than crizotinib
same,IC50,"[1]; Mus musculus, read-out: IC50",0.8 nM
same,GI50,"[1]; Mus musculus, source data sheet",0.7 nM
same,inhibition at 0.04 µM,IRAK1,19.3%
same,inhibition at 0.2 µM,"NTRK3; 0.2μM, 1 mM ATP",95.8%
same,IC50,NTRK3; ATP: 1 mM,9.28 nM
same,Body Weight Change(%) (average / SD),"[2]; DS-6051b 3 mg/kg po, day 0, average",0.0%
same,Body Weight Change(%) (individual),"[2]; DS-6051b 3 mg/kg po, day 0, individual animals",0.0%
same,Body Weight Change(%) (average / SD),"[2]; DS-6051b 3 mg/kg po, day 1, average",-2.9%
same,Body Weight Change(%) (individual),"[2]; DS-6051b 3 mg/kg po, day 1, individual animals",-3.6%
same,Body Weight Change(%) (average / SD),"[2]; DS-6051b 3 mg/kg po, day 2, average",-1.9%
same,Body Weight Change(%) (average / SD),"[2]; DS-6051b 3 mg/kg po, day 3, average",-2.1%
same,Body Weight Change(%) (average / SD),"[2]; DS-6051b 3 mg/kg po, day 4, average",-0.9%
same,Body Weight Change(%) (average / SD),"[2]; DS-6051b 10 mg/kg po, day 0, average",0.0%
same,Body Weight Change(%) (average / SD),"[2]; DS-6051b 10 mg/kg po, day 1, average",-1.6%
same,Body Weight Change(%) (average / SD),"[2]; DS-6051b 10 mg/kg po, day 2, average",0.2%
same,Body Weight Change(%) (average / SD),"[2]; DS-6051b 10 mg/kg po, day 3, average",0.6%
same,Body Weight Change(%) (average / SD),"[2]; DS-6051b 10 mg/kg po, day 4, average",0.9%
same,Body Weight Change(%) (average / SD),"[2]; DS-6051b 30 mg/kg po, day 0, average",0.0%
same,Body Weight Change(%) (average / SD),"[2]; DS-6051b 30 mg/kg po, day 1, average",-2.1%
same,Body Weight Change(%) (average / SD),"[2]; DS-6051b 30 mg/kg po, day 2, average",-1.9%
same,Body Weight Change(%) (average / SD),"[2]; DS-6051b 30 mg/kg po, day 3, average",-2.2%
same,Body Weight Change(%) (average / SD),"[2]; DS-6051b 30 mg/kg po, day 4, average",-1.7%
same,Body Weight Change(%) (average / SD),"[2]; DS-6051b 100 mg/kg po, day 0, average",0.0%
same,Body Weight Change(%) (average / SD),"[2]; DS-6051b 100 mg/kg po, day 1, average",-2.6%
same,Body Weight Change(%) (average / SD),"[2]; DS-6051b 100 mg/kg po, day 2, average",-2.5%
same,Body Weight Change(%) (average / SD),"[2]; DS-6051b 100 mg/kg po, day 3, average",-3.0%
same,Body Weight Change(%) (average / SD),"[2]; DS-6051b 100 mg/kg po, day 4, average",-2.4%
same,Body weight loss,[2]; ≥30 mg/kg,without severe body weight loss
